We go through five compounds from paper PMC10299909, “Structural basis of efficacy-driven ligand selectivity at GPCRs” (Nature Chemical Biology, 2023).

In test [1] the target is T1, M5 mAChR (Homo sapiens, UniProt P08912).
T1 construct: expressed in transfected cells; host or cells: CHO FlpIn
T1 sequence (P08912 1-532): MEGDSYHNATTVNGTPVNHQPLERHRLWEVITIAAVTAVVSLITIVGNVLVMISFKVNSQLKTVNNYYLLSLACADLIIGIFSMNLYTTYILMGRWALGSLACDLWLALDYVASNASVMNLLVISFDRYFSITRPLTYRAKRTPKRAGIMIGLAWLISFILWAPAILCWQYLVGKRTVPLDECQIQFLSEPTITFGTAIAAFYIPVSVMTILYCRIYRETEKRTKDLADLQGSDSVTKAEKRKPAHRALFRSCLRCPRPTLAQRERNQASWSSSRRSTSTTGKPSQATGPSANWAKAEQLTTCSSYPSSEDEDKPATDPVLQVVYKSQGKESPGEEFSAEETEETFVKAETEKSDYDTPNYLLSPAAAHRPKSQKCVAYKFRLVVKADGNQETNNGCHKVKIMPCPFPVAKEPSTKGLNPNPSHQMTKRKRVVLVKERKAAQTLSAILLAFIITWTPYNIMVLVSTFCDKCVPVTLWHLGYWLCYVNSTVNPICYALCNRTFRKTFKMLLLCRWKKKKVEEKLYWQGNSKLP
Nature of the test: pERK1/pERK2 signaling assay (AlphaScreen SureFire), CHO FlpIn cells. Format: cell-based. The settings on record: first set of experiments. (In general: In Alpha technology, singlet oxygen from a donor bead excites a nearby acceptor bead.)

The target in test [2] is M4 mAChR (Homo sapiens, UniProt P08173). Nature of the test: [3H]NMS competition binding, purified receptor in lipid nanodiscs with Gi1 heterotrimer.
For test [3], the target named is T2, M4 L190F mAChR (Homo sapiens, UniProt P08173, L190F).
T2 construct: expressed in transfected cells; host or cells: CHO FlpIn
T2 sequence (P08173 1-479 L190F): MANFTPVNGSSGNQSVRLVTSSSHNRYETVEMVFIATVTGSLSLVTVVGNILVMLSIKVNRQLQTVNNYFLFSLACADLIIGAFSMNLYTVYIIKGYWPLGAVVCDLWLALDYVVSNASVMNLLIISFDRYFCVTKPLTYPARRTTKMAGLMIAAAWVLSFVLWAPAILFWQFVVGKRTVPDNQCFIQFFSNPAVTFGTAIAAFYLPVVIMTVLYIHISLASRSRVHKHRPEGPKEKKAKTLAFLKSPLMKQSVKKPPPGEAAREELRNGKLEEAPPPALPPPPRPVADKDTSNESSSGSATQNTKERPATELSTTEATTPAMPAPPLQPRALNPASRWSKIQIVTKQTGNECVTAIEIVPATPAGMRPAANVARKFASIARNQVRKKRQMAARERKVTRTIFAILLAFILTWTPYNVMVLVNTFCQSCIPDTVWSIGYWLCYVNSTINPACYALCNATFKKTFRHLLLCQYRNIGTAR
Nature of the test: BRET TRUPATH GoA activation (G-protein dissociation) assay. In kind it is cell-based. The settings on record: T=6min, listed as Ach. Here is the method:
(§1) Cells were seeded at 20,000 cells per well into 96-well flat-bottom white culture plates and grown for 4 h. Plasmid DNA (20 ng per well of Gα, Gβ and Gγ at a 1:1:1 ratio) and linear polyethylenimine were added to the cells in a 1:6 ratio. To allow for protein expression, cells were then incubated (37 °C, 5% CO2) for 48 h before the measurement of agonist activity. […] The initial 4 min of measurement was considered baseline counts before ligand or vehicle addition, with BRET readings every 2 min for a further 8 min following drug or vehicle addition.
(§2) Concentration–response curves were fitted to a three-parameter logistic equation to derive ligand potency (pEC50) estimates.
(§3) Data was analyzed using the operational model of agonism to quantify the efficacy (Logτ) of each agonist in each cell line, and subsequently corrected for receptor expression level differences between cell lines (Logτc), using the M2 WT as reference. […] Source data

The next test deals with T3, M2 WT mAChR (Homo sapiens, UniProt P08172).
T3 construct: expressed in transfected cells; host or cells: CHO FlpIn
T3 sequence (P08172 1-466): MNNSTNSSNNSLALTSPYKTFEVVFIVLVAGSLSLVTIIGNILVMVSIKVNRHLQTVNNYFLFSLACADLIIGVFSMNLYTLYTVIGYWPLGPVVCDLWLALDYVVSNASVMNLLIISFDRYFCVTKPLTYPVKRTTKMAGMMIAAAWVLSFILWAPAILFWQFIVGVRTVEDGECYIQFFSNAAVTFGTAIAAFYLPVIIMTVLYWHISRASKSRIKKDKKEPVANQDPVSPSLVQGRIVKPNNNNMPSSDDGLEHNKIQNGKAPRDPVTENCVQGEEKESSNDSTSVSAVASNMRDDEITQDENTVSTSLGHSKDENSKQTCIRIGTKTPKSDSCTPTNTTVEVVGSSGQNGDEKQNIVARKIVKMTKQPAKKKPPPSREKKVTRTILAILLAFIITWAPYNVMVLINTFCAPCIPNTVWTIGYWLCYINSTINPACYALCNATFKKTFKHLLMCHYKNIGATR
The test is described as above. Format: cell-based. The settings on record: M2 wt, T=6min, individual experiments, listed as Ach. How it is done: as §1, §2, §3

For the next test, the target named is T4, M4 WT mAChR (Homo sapiens, UniProt P08173).
T4 construct: expressed in transfected cells; host or cells: CHO FlpIn
T4 sequence (P08173 1-479): T2 sequence (P08173 1-479 L190F) with F190L
Described as above. In kind it is cell-based. The settings on record: T=6min, listed as Ach. Here is the method: as §1, §2, §3

The target of test [4] is T5, M3 mAChR (Homo sapiens, UniProt P20309).
T5 construct: expressed in transfected cells; host or cells: CHO FlpIn
In words: pERK1/pERK2 signaling assay (AlphaScreen SureFire), CHO FlpIn cells. Format: cell-based. The settings on record: M3; first set of experiments.

Test [5] has as its target M2 mAChR (Homo sapiens, UniProt P08172).
Test [6] has as its target T2, M4 L190F mAChR. In words: pERK1/pERK2 signaling assay (AlphaScreen SureFire), CHO FlpIn cells. Format: cell-based.
Test [7] concerns the target T6, M4 mAChR (Homo sapiens, UniProt P08173).
T6 construct: expressed in transfected cells; host or cells: CHO FlpIn
T6 sequence (P08173 1-479): T2 sequence (P08173 1-479 L190F) with F190L
Described as above. Format: cell-based. The settings on record: Figure 5c, by tail length, best fit value from nonlinear regression on grouped data.

Test [8] has as its target T7, M2 mAChR (Homo sapiens, UniProt P08172).
T7 sequence (P08172 1-466): T3 sequence (P08172 1-466)
The description is as above. In kind it is cell-based. The settings on record: Figure 5c, by tail length, best fit value from nonlinear regression on grouped data.

The target in the next test is M1 mAChR (Homo sapiens, UniProt P11229). In words: cell-based.
The target in test [9] is T6, M4 mAChR. Nature of the test: whole-cell [3H]NMS radioligand competition binding, CHO FlpIn cells. As to conditions: M4; first set of experiments (top 5 rows); read-out: pKI (radioligand binding competition with [3H]NMS) (converted). In general terms: In a radioligand displacement assay an active substance lowers the binding of a labelled ligand.
The target in test [10] is T1, M5 mAChR. Described as above. The settings on record: first set of experiments, read-out: pKI (radioligand binding competition with [3H]NMS) (converted).
The target in test [11] is T7, M2 mAChR. In words: cell-based.
Test [12] concerns the target T5, M3 mAChR. In words: whole-cell [3H]NMS radioligand competition binding, CHO FlpIn cells. As to conditions: first set of experiments, read-out: pKI (radioligand binding competition with [3H]NMS) (converted).
Setting [13] is: Receptor : G protein Molar Ratio 1:0.
Where [14] appears, read: Log[Ligand] (M) -4, individual experiments.
Where [15] appears, read: Log[Ligand] (M) -9, individual experiments.
[16] abbreviates: Log[Ligand] (M) -10, individual experiments.
Setting [17] is: Log[Ligand] (M) -12, individual experiments.

Structures are written as SMILES. Positions count from the first letter of the chain named. Several values for one entry are separate records, joined by “and”; a condition that tells them apart may be missing. Equal values may be shown once. Read-outs that look alike come from different tables or passages of the source.

Consider `CC(=O)OCC[N+](C)(C)C` [Acetylcholine, acetylcholine], for which the “Emax pERK1/2” value on M5 mAChR [1] was found to be 90 ± 4 % FBS stimulation; on M3 mAChR [4], 98 ± 5 % FBS stimulation; at M4 L190F mAChR [6], 94 ± 8 % FBS stimulation. Moreover, the “Fraction of receptors in a G protein-dependent high-affinity state” value at M4 mAChR [2] (setting [13]) was found to be 0.00 ± 0.04; on M4 mAChR [2] (Receptor : G protein Molar Ratio 1:125), 0.30 ± 0.04; on M4 mAChR [2] (Receptor : G protein Molar Ratio 1:500), 0.71 ± 0.03; on M2 mAChR [5] (setting [13]) it was 0.13 ± 0.10; on M2 mAChR [5] (Receptor : G protein Molar Ratio 1:50), 0.33 ± 0.10; on M2 mAChR [5] (Receptor : G protein Molar Ratio 1:1000), 0.57 ± 0.11. Moreover, the “Fraction of receptors in a G protein-dependent high-affinity state” value at M2 mAChR [5] (Receptor : G protein Molar Ratio 1:2000) was found to be 0.89 ± 0.12. Also, the GoA activation response at M4 L190F mAChR [3] (setting [14]) was 106.304 % Emax ACh and 103.075 % Emax ACh and 107.769 % Emax ACh and 104.574 % Emax ACh and 105.838 % Emax ACh; at M4 L190F mAChR [3] (Log[Ligand] (M) -5, individual experiments) it was 99.5547 % Emax ACh and 105.081 % Emax ACh and 94.0499 % Emax ACh and 100.086 % Emax ACh and 98.7018 % Emax ACh; at M4 L190F mAChR [3] (Log[Ligand] (M) -6, individual experiments), 84.6502 % Emax ACh and 86.1198 % Emax ACh and 94.9784 % Emax ACh and 91.5878 % Emax ACh and 95.0975 % Emax ACh; on M4 L190F mAChR [3] (Log[Ligand] (M) -7, individual experiments) it was 59.4174 % Emax ACh and 69.5753 % Emax ACh and 70.634 % Emax ACh and 76.3729 % Emax ACh and 78.8634 % Emax ACh; at M4 L190F mAChR [3] (Log[Ligand] (M) -8, individual experiments), 12.4418 % Emax ACh and 20.3625 % Emax ACh and 19.5412 % Emax ACh and 25.1119 % Emax ACh and 33.5842 % Emax ACh; at M4 L190F mAChR [3] (setting [15]), 1.269 % Emax ACh and 1.901 % Emax ACh and 28.8031 % Emax ACh and 3.9293 % Emax ACh and 7.995 % Emax ACh. Further, the GoA activation response was -3.41 % Emax ACh and 9.605 % Emax ACh and 0.2419 % Emax ACh and -0.9 % Emax ACh and 0.4231 % Emax ACh at M4 L190F mAChR [3] (setting [16]); 2.811 % Emax ACh and -10.3446 % Emax ACh and -23.8686 % Emax ACh and 0.009116 % Emax ACh and -3.752 % Emax ACh on M4 L190F mAChR [3] (setting [17]); 103.24 % Emax ACh and 95.841 % Emax ACh and 98.7568 % Emax ACh and 99.8054 % Emax ACh and 99.3813 % Emax ACh at M2 WT mAChR (Log[Ligand] (M) -4); 9.766 % Emax ACh at M2 WT mAChR (Log[Ligand] (M) -8); 1.63 % Emax ACh and -3.189 % Emax ACh and -6.851 % Emax ACh and 0.4007 % Emax ACh and 0.416 % Emax ACh at M2 WT mAChR (Log[Ligand] (M) -9); -3.058 % Emax ACh and 8.597 % Emax ACh and 0.3009 % Emax ACh and 1.683 % Emax ACh and 4.386 % Emax ACh on M2 WT mAChR (Log[Ligand] (M) -10). For the same compound, the GoA activation response on M2 WT mAChR (Log[Ligand] (M) -12) was 6.399 % Emax ACh and 0.8864 % Emax ACh and 8.076 % Emax ACh and 1.671 % Emax ACh and -0.9147 % Emax ACh; at M4 WT mAChR (setting [14]), 104.45 % Emax ACh and 102.662 % Emax ACh and 101.586 % Emax ACh and 101.003 % Emax ACh and 104.541 % Emax ACh; at M4 WT mAChR (setting [15]) it was 1.1727 % Emax ACh and 5.239 % Emax ACh and 5.623 % Emax ACh and -1.171 % Emax ACh and 2.894 % Emax ACh; on M4 WT mAChR (setting [16]), 3.695 % Emax ACh and 0.8905 % Emax ACh and -7.035 % Emax ACh and 0.4855 % Emax ACh and -3.187 % Emax ACh; on M4 WT mAChR (setting [17]), -21.8016 % Emax ACh and 1.058 % Emax ACh and -6.101 % Emax ACh and 1.717 % Emax ACh and -0.3266 % Emax ACh.
With `CCCCCCCCOc1nsnc1C1=CCCN(C)C1` [C8], the Fit parameter on M4 mAChR [7] stood at 0.3749; on M2 mAChR [8], 0.1239.
`CCCCCCOc1nsnc1C1=CCCN(C)C1` [C6]: the figures for the Fit parameter at M4 mAChR [7] and at M2 mAChR [8] were 0.5137 and 0.08358, respectively.
`CCCCCOc1nsnc1C1=CCCN(C)C1` [C5]: the Fit parameter at M4 mAChR [7] is listed as 0.4599; at M2 mAChR [8] it was 0.2865.
`CCCOc1nsnc1C1=CCCN(C)C1` [3-carbon tail analog of xanomeline]: the Ki is 27.5 nM at M1 mAChR; 37.2 nM at M4 mAChR [9]; 49 nM at M5 mAChR [10]; 22.9 nM at M2 mAChR [11]; 34.7 nM on M3 mAChR [12].
